In BindingDB's records for PubMed 39288705 (Comenius University Bratislava):

Columns and labels:
[1] = molecular target: T1, Replicase polyprotein 1ab (Severe acute respiratory syndrome coronavirus 2, UniProt P0DTD1); test: Inhibition of SARS-CoV-2 3CL protease extracted from Escherichia coli BL21 (DE3) Rosetta cells using DabcylKNSTLQSGLRKE-Edan as substrate preincubated for 60 mins followed by substrate addition and measured after 20 mins by FRET assay
[2] = molecular target: T1, Replicase polyprotein 1ab; test: Binding affinity to SARS-CoV-2 3CL protease extracted from Escherichia coli BL21 (DE3) Rosetta cells assessed as dissociation constant
[3] = molecular target: T1, Replicase polyprotein 1ab; test: Binding affinity to SARS-CoV-2 3CL protease assessed as dissociation constant by SPR analysis
[4] = molecular target: T1, Replicase polyprotein 1ab; test: Inhibition of SARS-CoV-2 3CL protease by FRET assay

CCC(C(=O)Nc1cc(NC2CCOCC2)ccc1C)n1cc(Cl)cc2nc(SCc3ccc(F)cc3)nc1-2 (stereo not given)
IC50 [1]: 520 nM | Kd [2]: 1000 nM

CCC(C(=O)Nc1cc(NC2COC2)ccc1C)n1cccc2nc(SCc3ccc(F)cc3)nc1-2 (stereo not given)
Kd [3]: 1400 nM

CCC(C(=O)Nc1cc(NC2CCOC2)ccc1C)n1cc(Cl)cc2nc(SCc3ccc(F)cc3)nc1-2 (stereo not given)
Kd [2]: 1110 nM

CCC(C(=O)Nc1cc(NC2CCNC2)ccc1C)n1cccc2nc(SCc3ccc(F)cc3)nc1-2 (stereo not given)
IC50 [4]: 140 nM
